How the values were obtained:
[1] = tested on: Aβ1-42-induced cognitive impairments; assay: Novel-object recognition (NOR) test in Aβ1-42 AD rat model; assay type: in vivo, rats
Experimental: Aβ1-42 (Sigma-Aldrich, St. Louis, MO, USA;) was dissolved in double-distilled water at the concentration of 5 μg/μl, and incubated at 37° C. for one week before surgery. The rats were randomly divided into four groups as Sham (n=8), Sham+AG-1601 (n=8), Aβ1-42 (n=8) and Aβ1-42+AG-1601 (n=8). The Alzheimer's disease rat models were established by intracerebroventricular (i.c.v.) injection of Aβ1-42 aggregates. The animals were anesthetized with intraperitoneal injection of pentobarbital sodium (50 mg/kg) and placed in a stereotaxic apparatus (Narishige, Japan). The head skin of the rat was opened and two small holes were drilled on both sides of skull following the coordinates: 0.8 mm posterior to bregma, +1.4 mm lateral to sagittal suture, 4.0 mm beneath the surface of brain. Aβ1-42 (2.0 μl per side) was injected bilaterally into the lateral ventricles through micro-syringe. The needle was taken out after 5 minutes of the injection to ensure the aggregates were infused completely. […] The short- and long-term memory functions of the animals were evaluated by using the NOR test, which were carried out after the open field test. […] A recognition index was calculated by the percentage of TB/(TA+TB) (TA: time spent exploring the familiar object A; TB: time spent exploring the novel object B). […]

[2] = tested on: T98G cells; assay: Cell viability in TMZ-resistant T98G cells; assay type: cell-based; settings: TMZ plus AG-1601
Experimental: Cells were treated with indicated content of AG-1601 for 48 hours, then followed by performance of cell viability assays. Efficacy of AG-1601 in rat cell (see FIGS. 24A and B), of AG-1601 in human glioma cell see FIGS. 25A and 25B), different batches of AG-1601 in C6 and U251 cells (see FIGS. 26A and 26B), of AG-1601 in C6 and U87 cells (see FIGS. 27A and 27B), of AG-1601, TMZ, and Carmustine in U251 cells (see FIGS. 28A and 28B), and of AG-1601, TMZ, and Carmustine in U87 cells (see FIGS. 29A and 29B). […] Cell viability was determined in T98G cell and U251 cell after treatment with DMSO, TMZ, AG-1601 and TMZ plus AG-1601 (FIG. 30).

C=CC1=C(C)c2cc3[nH]c(cc4nc(cc5[nH]c(cc1n2)c(C)c5C=C)C(C)=C4CCC(=O)O)c(CCC(=O)NCCCc1ccccc1)c3C [AG-1601, 3-(2,8,13,18-tetramethyl-3-(3-oxo-3-((3-phenylpropyl)amino)propyl)-12,17-divinylporphyrin-7-yl)propanoic acid]
recognition index, short-term memory test ([1]; 1 h after training, vs Aβ1-42 group): significant increase in recognition index | cognitive impairments in NOR test ([1]; Aβ42 induced AD rat model): significantly reversed cognitive impairments | effect on TMZ-resistance [2]: Overcomes the Effect of TMZ-resistance
